Assay results from paper PMC9586930, “Molecular insights into the distinct signaling duration for the peptide-induced PTH1R activation” (Nature Communications, 2022).
Positions count from the first letter of the chain named.

How the values were obtained:
Format in all cases: cell-based
Conditions in all cases: for ΔpEC50±SEM: relative to WT, n = 3 in triplicate; for ΔpEC50±SEM / Span±SEM: mean ± SEM; for Span±SEM: window between maximal response (Emax) and vehicle, n = 3
WT PTH1R = target: T1, WT PTH1R (Homo sapiens, UniProt Q03431); assay: cAMP accumulation assay (GloSensor), wild-type PTH1R
T1 construct: a flag-tag was fused to the N terminal of full-length PTH1R (WT or mutant); expressed in transfected cells; host or cells: HEK293T
T1 sequence (Q03431 27-593): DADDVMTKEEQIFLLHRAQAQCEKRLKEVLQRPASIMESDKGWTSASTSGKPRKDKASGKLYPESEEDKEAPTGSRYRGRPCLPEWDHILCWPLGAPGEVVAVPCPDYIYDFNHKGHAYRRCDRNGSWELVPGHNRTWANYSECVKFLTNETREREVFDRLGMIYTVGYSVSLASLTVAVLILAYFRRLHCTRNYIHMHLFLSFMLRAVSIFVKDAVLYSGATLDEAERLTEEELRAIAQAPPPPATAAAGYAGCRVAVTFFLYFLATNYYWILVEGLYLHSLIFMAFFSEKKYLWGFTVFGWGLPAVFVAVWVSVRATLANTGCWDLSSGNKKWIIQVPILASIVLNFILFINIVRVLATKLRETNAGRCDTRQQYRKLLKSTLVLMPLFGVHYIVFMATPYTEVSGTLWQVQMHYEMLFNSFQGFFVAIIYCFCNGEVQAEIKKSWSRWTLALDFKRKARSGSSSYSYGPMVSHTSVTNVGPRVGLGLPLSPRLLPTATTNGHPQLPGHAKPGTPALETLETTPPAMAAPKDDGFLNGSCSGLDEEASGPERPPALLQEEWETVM
Method: (§1) Human embryonic kidney 293 T (HEK293T, ATCC: CRL-1573) cells were transfected with a plasmid mixture consisting of pcDNA3.1-flag-PTH1R (WT or mutants) and the cAMP biosensor GloSensor-22F (Promega) at a ratio of 2:1 (see Supplementary Table 7 for a list of primers used in this study). After 24 h, transfected cells were plated onto a 384-well plate, which was treated with cell adherent reagent (Applygen) in advance. After another 12 h, cells were treated with Hank’s balanced salt solution for starvation and then incubated in CO2-independent media containing 4% GloSensor cAMP Reagent (Promega) at a volume of 5 μl per well and incubated for 20 min at RT before measurements for baseline luminescence (Spark Multimode microplate reader, TECAN). Next, test ligands were added at different concentrations from 10^−6 to 10^−13 M before second measurement. Finally, data were normalized to 100% of the maximal PTH (1-34) response for WT PTH1R using a sigmoidal dose-response in GraphPad Prism.
(§2) Statistical analyses were performed on at least three individual datasets and analysed using GraphPad Prism software. Bars represent differences in the calculated agonist potency (pEC50) and maximum agonist response (Emax) for each mutant relative to the WT receptor. Data are mean± s.e.m. from at least three independent experiments, performed in triplicates. ns, not significant, ^nsP > 0.01; ^*P < 0.01; ^**P < 0.001; ^***P < 0.0001 (one-way analysis of variance (ANOVA) followed by Dunnett’s test, compared with the response of the WT). For dose-response experiments, data were normalized and analyzed using nonlinear curve fitting for the log (agonist) versus response (three parameters) curves.

PTH1R Y191A mutant = target: T2, PTH1R Y191A mutant (Homo sapiens, UniProt Q03431, Y191A); assay: cAMP accumulation assay (GloSensor), PTH1R Y191A
T2 construct: a flag-tag was fused to the N terminal of full-length PTH1R (WT or mutant); expressed in transfected cells; host or cells: HEK293T
T2 sequence (Q03431 27-593 Y191A): T1 sequence (Q03431 27-593) with Y165A
Method: as §1, §2

PTH1R V285A mutant = target: T3, PTH1R V285A mutant (Homo sapiens, UniProt Q03431, V285A); assay: cAMP accumulation assay (GloSensor), PTH1R V285A
T3 construct: a flag-tag was fused to the N terminal of full-length PTH1R (WT or mutant); expressed in transfected cells; host or cells: HEK293T
T3 sequence (Q03431 27-593 V285A): T1 sequence (Q03431 27-593) with V259A
Method: as §1, §2

| Substance | span (from the WT) (WT PTH1R; PTH1R WT, replicate 1) | ΔpEC50 (from the WT) (WT PTH1R; PTH1R WT, replicate 1) | span (from the WT) (WT PTH1R; PTH1R WT, replicate 2) | ΔpEC50 (from the WT) (WT PTH1R; PTH1R WT, replicate 2) | span (from the WT) (WT PTH1R; PTH1R WT, replicate 3) | ΔpEC50 (from the WT) (WT PTH1R; PTH1R WT, replicate 3) | ΔpEC50±SEM (WT PTH1R) | ΔpEC50 (from the WT) (WT PTH1R; replicate 1) | ΔpEC50 (from the WT) (WT PTH1R; replicate 2) | ΔpEC50 (from the WT) (WT PTH1R; replicate 3) | Span±SEM (WT PTH1R) | span (from the WT) (PTH1R Y191A mutant; PTH1R Y1911.43A, replicate 1) | ΔpEC50 (from the WT) (PTH1R Y191A mutant; PTH1R Y1911.43A, replicate 1) | span (from the WT) (PTH1R Y191A mutant; PTH1R Y1911.43A, replicate 2) | ΔpEC50 (from the WT) (PTH1R Y191A mutant; PTH1R Y1911.43A, replicate 2) | span (from the WT) (PTH1R Y191A mutant; PTH1R Y1911.43A, replicate 3) | ΔpEC50 (from the WT) (PTH1R Y191A mutant; PTH1R Y1911.43A, replicate 3) | ΔpEC50±SEM (PTH1R Y191A mutant) | ΔpEC50 (from the WT) (PTH1R Y191A mutant; replicate 1) | ΔpEC50 (from the WT) (PTH1R Y191A mutant; replicate 2) | also measured |
| --- | --- | --- | --- | --- | --- | --- | --- | --- | --- | --- | --- | --- | --- | --- | --- | --- | --- | --- | --- | --- | --- |
| H-AVAEIQLMHQRAKWIQDARRRAFLHKLIAEIHTAEI-OH [LA-PTH, long-acting PTH analog, modified PTH/PTHrP hybrid] | 106.8 | 0 | 118.8 | 0 | 116.4 | 0 | 0 | 0 | 0 | 0 | 114.00±3.67 | 133.3 | -0.163 | 153.3 | -0.013 | 159.2 | -0.095 | -0.09±0.04 | -0.163 | -0.013 | ΔpEC50 (from the WT) (PTH1R Y191A mutant; replicate 3): -0.095; Span±SEM (PTH1R Y191A mutant): 148.60±7.84; span (from the WT) (PTH1R V285A mutant; PTH1R V2853.33A, replicate 1): 160.1; ΔpEC50 (from the WT) (PTH1R V285A mutant; PTH1R V2853.33A, replicate 1): -0.326; span (from the WT) (PTH1R V285A mutant; PTH1R V2853.33A, replicate 2): 211.8; ΔpEC50 (from the WT) (PTH1R V285A mutant; PTH1R V2853.33A, replicate 2): -0.5; span (from the WT) (PTH1R V285A mutant; PTH1R V2853.33A, replicate 3): 140.2; ΔpEC50 (from the WT) (PTH1R V285A mutant; PTH1R V2853.33A, replicate 3): -0.433; ΔpEC50±SEM (PTH1R V285A mutant): -0.42±0.05; ΔpEC50 (from the WT) (PTH1R V285A mutant; replicate 1): -0.326; ΔpEC50 (from the WT) (PTH1R V285A mutant; replicate 2): -0.5; ΔpEC50 (from the WT) (PTH1R V285A mutant; replicate 3): -0.433; Span±SEM (PTH1R V285A mutant): 170.70±21.34 |
| H-AVSEHQLLHDKGKSIQDLRRRELLEKLL-{Aib}-KLHTA-NH2 [ABL, Abaloparatide, an analog of PTHrP, short-acting PTH1R agonist] | 115.9 | 0 | 122.2 | 0 | 127.3 | 0 | 0 | 0 | 0 | 0 | 121.80±3.30 | 197.4 | -2.59 | 251.3 | -2.509 | 242 | -2.365 | -2.49±0.07 | -2.59 | -2.509 | ΔpEC50 (from the WT) (PTH1R Y191A mutant; replicate 3): -2.365; Span±SEM (PTH1R Y191A mutant): 230.23±16.63; span (from the WT) (PTH1R V285A mutant; PTH1R V2853.33A, replicate 1): 158.8; ΔpEC50 (from the WT) (PTH1R V285A mutant; PTH1R V2853.33A, replicate 1): -1.921; span (from the WT) (PTH1R V285A mutant; PTH1R V2853.33A, replicate 2): 185.5; ΔpEC50 (from the WT) (PTH1R V285A mutant; PTH1R V2853.33A, replicate 2): -2.009; span (from the WT) (PTH1R V285A mutant; PTH1R V2853.33A, replicate 3): 175.8; ΔpEC50 (from the WT) (PTH1R V285A mutant; PTH1R V2853.33A, replicate 3): -2.246; ΔpEC50±SEM (PTH1R V285A mutant): -2.06±0.1; ΔpEC50 (from the WT) (PTH1R V285A mutant; replicate 1): -1.921; ΔpEC50 (from the WT) (PTH1R V285A mutant; replicate 2): -2.009; ΔpEC50 (from the WT) (PTH1R V285A mutant; replicate 3): -2.246; Span±SEM (PTH1R V285A mutant): 173.37±7.80 |
| H-SVSEIQLMHNLGKHLNSMERVEWLRKKLQDVHNF-OH [PTH, Teriparatide, human PTH 1-34, long-acting peptide agonist of PTH1R] | 125.1 | 0 | 136.6 | 0 | 114.9 | 0 | 0 | 0 | 0 | 0 | 125.53±6.27 | 132.4 | -0.995 | 179.6 | -0.805 | 268.7 | -0.706 | -0.84±0.08 | -0.995 | -0.805 | Emax (WT PTH1R; HEK293T cells, from curve fitting dose-response data): 103.1 luminescence counts per 500ms; ΔpEC50 (from the WT) (PTH1R Y191A mutant; replicate 3): -0.706; Span±SEM (PTH1R Y191A mutant): 164.77±14.05; span (from the WT) (PTH1R V285A mutant; PTH1R V2853.33A, replicate 1): 118.6; ΔpEC50 (from the WT) (PTH1R V285A mutant; PTH1R V2853.33A, replicate 1): -0.181; span (from the WT) (PTH1R V285A mutant; PTH1R V2853.33A, replicate 2): 150.8; ΔpEC50 (from the WT) (PTH1R V285A mutant; PTH1R V2853.33A, replicate 2): -0.072; span (from the WT) (PTH1R V285A mutant; PTH1R V2853.33A, replicate 3): 181.1; ΔpEC50 (from the WT) (PTH1R V285A mutant; PTH1R V2853.33A, replicate 3): -0.211; ΔpEC50±SEM (PTH1R V285A mutant): -0.15±0.04; ΔpEC50 (from the WT) (PTH1R V285A mutant; replicate 1): -0.181; ΔpEC50 (from the WT) (PTH1R V285A mutant; replicate 2): -0.072; ΔpEC50 (from the WT) (PTH1R V285A mutant; replicate 3): -0.211; Span±SEM (PTH1R V285A mutant): 152.43±15.43 |
